Laboratory results reported in ChEMBL document CHEMBL1135164, “New ketosteroids from the red alga Hypnea musciformis” (Bioorg Med Chem Lett, 2002).

Biological target: T1, Chymotrypsin-like elastase family member 2A (Sus scrofa) (UniProt P08419)
T1 sequence (whole entry): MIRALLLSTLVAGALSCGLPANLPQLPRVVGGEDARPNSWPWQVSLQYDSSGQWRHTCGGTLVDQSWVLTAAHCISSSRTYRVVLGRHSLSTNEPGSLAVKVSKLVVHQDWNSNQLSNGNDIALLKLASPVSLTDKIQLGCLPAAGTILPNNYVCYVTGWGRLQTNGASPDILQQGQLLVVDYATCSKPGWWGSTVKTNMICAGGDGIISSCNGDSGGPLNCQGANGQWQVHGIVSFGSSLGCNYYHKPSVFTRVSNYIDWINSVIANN
Experiment: Effective dose for inhibition of the porcine Pancreatic elastase

SMILES: CC(C)C/C=C/[C@](C)(O)[C@H]1CC[C@H]2[C@@H]3CC(=O)[C@H]4CC(=O)CC[C@]4(C)[C@H]3CC[C@@]21C
- ED50: 100 µM
